Laboratory results: the supplement of paper PMC10307832

Assays:
Test in all cases: relative viability (nuclei count vs DMSO), 5 days (fraction); higher = more cells survive
SK-LU-1 = test system: SK-LU-1
Outline: (§1)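 The day after seeding in 1536-well plates, lung cancer cell lines were treated by pin tool with a single drug, or with a fixed anchor-drug dose together with five library-drug doses (not always all listed) in √10 steps. After 5 days, a combined fix-and-stain solution (final 0.05% Triton X-100, 1% formaldehyde, 1 ug/ml Hoechst) was added. Nuclei counted on 4× images gave relative viability as treated counts over vehicle counts, reported as the median of duplicate plates.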

COR-L23 = test system: COR-L23
Outline: as §1

ABC-1 = test system: ABC-1
Outline: as §1

HOP-62 = test system: HOP-62
Outline: as §1

NCI-H1734 = test system: NCI-H1734
Outline: as §1

NCI-H1437 = test system: NCI-H1437
Outline: as §1

NCI-H3122 = test system: NCI-H3122
Outline: as §1

UMC-11 = test system: UMC-11
Outline: as §1

NCI-H727 = test system: NCI-H727
Outline: as §1

NCI-H1755 = test system: NCI-H1755
Outline: as §1

NCI-H2347 = test system: NCI-H2347
Outline: as §1

EMC-BAC-2 = test system: EMC-BAC-2
Outline: as §1

RERF-LC-KJ = test system: RERF-LC-KJ
Outline: as §1

LK-2 = test system: LK-2
Outline: as §1

HCC-366 = test system: HCC-366
Outline: as §1

PC-3 [JPC-3] = test system: PC-3 [JPC-3]
Outline: as §1

NCI-H441 = test system: NCI-H441
Outline: as §1

CAL-12T = test system: CAL-12T
Outline: as §1

NCI-H1651 = test system: NCI-H1651
Outline: as §1

HARA = test system: HARA
Outline: as §1

NCI-H1650 = test system: NCI-H1650
Outline: as §1

CCNC(=O)c1noc(-c2cc(C(C)C)c(O)cc2O)c1-c1ccc(CN2CCOCC2)cc1 [Luminespib] + CC(=O)c1c(C)c2cnc(Nc3ccc(N4CCNCC4)cn3)nc2n(C2CCCC2)c1=O [Palbociclib] (partner 0.5 µM)
relative viability (SK-LU-1; first compound 0.002 µM): 0.456 | relative viability (SK-LU-1; first compound 0.006325 µM): 0.318 | relative viability (SK-LU-1; first compound 0.02 µM): 0.294 | relative viability (SK-LU-1; first compound 0.06325 µM): 0.186 | relative viability (SK-LU-1; first compound 0.2 µM): 0.194 | relative viability (COR-L23; first compound 0.002 µM): 0.343 | relative viability (COR-L23; first compound 0.006325 µM): 0.274 | relative viability (COR-L23; first compound 0.02 µM): 0.26 | relative viability (COR-L23; first compound 0.06325 µM): 0.0657 | relative viability (COR-L23; first compound 0.2 µM): 0.071 | relative viability (ABC-1; first compound 0.002 µM): 0.925 | relative viability (ABC-1; first compound 0.006325 µM): 0.876 | relative viability (ABC-1; first compound 0.02 µM): 0.494 | relative viability (ABC-1; first compound 0.06325 µM): 0.286 | relative viability (ABC-1; first compound 0.2 µM): 0.245 | relative viability (HOP-62; first compound 0.002 µM): 0.451 | relative viability (HOP-62; first compound 0.006325 µM): 0.449 | relative viability (HOP-62; first compound 0.02 µM): 0.594 | relative viability (HOP-62; first compound 0.06325 µM): 0.384 | relative viability (HOP-62; first compound 0.2 µM): 0.235 | relative viability (NCI-H1734; first compound 0.002 µM): 0.359 | relative viability (NCI-H1734; first compound 0.006325 µM): 0.389 | relative viability (NCI-H1734; first compound 0.02 µM): 0.334 | relative viability (NCI-H1734; first compound 0.06325 µM): 0.204 | relative viability (NCI-H1734; first compound 0.2 µM): 0.144 | relative viability (NCI-H1437; first compound 0.002 µM): 0.34 | relative viability (NCI-H1437; first compound 0.006325 µM): 0.306 | relative viability (NCI-H1437; first compound 0.02 µM): 0.309 | relative viability (NCI-H1437; first compound 0.06325 µM): 0.273 | relative viability (NCI-H1437; first compound 0.2 µM): 0.22 | relative viability (NCI-H3122; first compound 0.002 µM): 0.173 | relative viability (NCI-H3122; first compound 0.006325 µM): 0.233 | relative viability (NCI-H3122; first compound 0.02 µM): 0.173 | relative viability (NCI-H3122; first compound 0.06325 µM): 0.197 | relative viability (NCI-H3122; first compound 0.2 µM): 0.196 | relative viability (UMC-11; first compound 0.002 µM): 0.32 | relative viability (UMC-11; first compound 0.006325 µM): 0.303 | relative viability (UMC-11; first compound 0.02 µM): 0.296 | relative viability (UMC-11; first compound 0.06325 µM): 0.273 | relative viability (UMC-11; first compound 0.2 µM): 0.2 | relative viability (NCI-H727; first compound 0.002 µM): 0.668 | relative viability (NCI-H727; first compound 0.006325 µM): 0.665 | relative viability (NCI-H727; first compound 0.02 µM): 0.631 | relative viability (NCI-H727; first compound 0.06325 µM): 0.45 | relative viability (NCI-H727; first compound 0.2 µM): 0.424 | relative viability (NCI-H1755; first compound 0.002 µM): 0.51 | relative viability (NCI-H1755; first compound 0.006325 µM): 0.474 | relative viability (NCI-H1755; first compound 0.02 µM): 0.44 | relative viability (NCI-H1755; first compound 0.06325 µM): 0.462 | relative viability (NCI-H1755; first compound 0.2 µM): 0.373 | relative viability (NCI-H2347; first compound 0.002 µM): 0.37 | relative viability (NCI-H2347; first compound 0.006325 µM): 0.408 | relative viability (NCI-H2347; first compound 0.02 µM): 0.38 | relative viability (NCI-H2347; first compound 0.06325 µM): 0.384 | relative viability (NCI-H2347; first compound 0.2 µM): 0.301 | relative viability (EMC-BAC-2; first compound 0.002 µM): 0.543 | relative viability (EMC-BAC-2; first compound 0.006325 µM): 0.495 | relative viability (EMC-BAC-2; first compound 0.02 µM): 0.424 | relative viability (EMC-BAC-2; first compound 0.06325 µM): 0.398 | relative viability (EMC-BAC-2; first compound 0.2 µM): 0.31 | relative viability (RERF-LC-KJ; first compound 0.002 µM): 1.04 | relative viability (RERF-LC-KJ; first compound 0.006325 µM): 1.01 | relative viability (RERF-LC-KJ; first compound 0.02 µM): 1.02 | relative viability (RERF-LC-KJ; first compound 0.06325 µM): 0.269 | relative viability (RERF-LC-KJ; first compound 0.2 µM): 0.227 | relative viability (LK-2; first compound 0.002 µM): 0.679 | relative viability (LK-2; first compound 0.006325 µM): 0.563 | relative viability (LK-2; first compound 0.02 µM): 0.351 | relative viability (LK-2; first compound 0.06325 µM): 0.0849 | relative viability (LK-2; first compound 0.2 µM): 0.0745 | relative viability (HCC-366; first compound 0.002 µM): 0.363 | relative viability (HCC-366; first compound 0.006325 µM): 0.358 | relative viability (HCC-366; first compound 0.02 µM): 0.411 | relative viability (HCC-366; first compound 0.06325 µM): 0.0279 | relative viability (HCC-366; first compound 0.2 µM): 0.0276 | relative viability (PC-3 [JPC-3]; first compound 0.002 µM): 0.558 | relative viability (PC-3 [JPC-3]; first compound 0.006325 µM): 0.544 | relative viability (PC-3 [JPC-3]; first compound 0.02 µM): 0.518 | relative viability (PC-3 [JPC-3]; first compound 0.06325 µM): 0.473 | relative viability (PC-3 [JPC-3]; first compound 0.2 µM): 0.436 | relative viability (NCI-H441; first compound 0.002 µM): 0.243 | relative viability (NCI-H441; first compound 0.006325 µM): 0.215 | relative viability (NCI-H441; first compound 0.02 µM): 0.143 | relative viability (NCI-H441; first compound 0.06325 µM): 0.102 | relative viability (NCI-H441; first compound 0.2 µM): 0.1 | relative viability (CAL-12T; first compound 0.002 µM): 0.601 | relative viability (CAL-12T; first compound 0.006325 µM): 0.467 | relative viability (CAL-12T; first compound 0.02 µM): 0.161 | relative viability (CAL-12T; first compound 0.06325 µM): 0.11 | relative viability (CAL-12T; first compound 0.2 µM): 0.0956 | relative viability (NCI-H1651; first compound 0.002 µM): 0.544 | relative viability (NCI-H1651; first compound 0.006325 µM): 0.521 | relative viability (NCI-H1651; first compound 0.02 µM): 0.408 | relative viability (NCI-H1651; first compound 0.06325 µM): 0.423 | relative viability (NCI-H1651; first compound 0.2 µM): 0.332 | relative viability (HARA; first compound 0.002 µM): 0.221 | relative viability (HARA; first compound 0.006325 µM): 0.221 | relative viability (HARA; first compound 0.02 µM): 0.213 | relative viability (HARA; first compound 0.06325 µM): 0.253 | relative viability (HARA; first compound 0.2 µM): 0.11 | relative viability (NCI-H1650; first compound 0.002 µM): 0.305 | relative viability (NCI-H1650; first compound 0.006325 µM): 0.302 | relative viability (NCI-H1650; first compound 0.02 µM): 0.168 | relative viability (NCI-H1650; first compound 0.06325 µM): 0.106 | relative viability (NCI-H1650; first compound 0.2 µM): 0.127
